In patent US11149052B2, “2′3′-cyclic dinucleotides” (Institute of Organic Chemistry and Biochemistry, ASCR, V.V.I, priority 2018, dated 2021):
pEC50: −log10 of the molar value.

Key:
[1] = target: T1, WT STING (truncated human WT STING protein) (Homo sapiens, UniProt Q86WV6, H232R); experiment: Differential Scanning Fluorimetry with WT STING; format: binding; settings: thermal shift vs apoprotein; 150 μM CDN; 0.1 mg/ml STING protein; SYPRO Orange; read-out: DSF ΔTm (° C.) WT STING
T1 construct: truncated human WT STING or AQ STING (amino acid residues 140-343); 8xHis (N, cleaved yes); SUMO (N, cleaved yes); made in house; host or cells: E. coli Rosetta-gami B (DE3)
Method: (§1) Purified PCR products were cleaved with restriction enzymes BamHI (cat. #R0136S, NEB, Ipswich, USA) and NotI (cat. #R0189S, NEB, Ipswich, USA) and cloned into the pSUMO vector linearized with the identical enzymes.
(§2) DNase I (cat. #D5025, Sigma Aldrich, Czech Republic) and RNase A (cat. #R6513, Sigma Aldrich, Czech Republic) were added (final concentration […]) together with MgCl2 (final concentration 5 mmol·l^−1) to the homogenate and bacteria were lysed using French Press G-M™ High-Pressure Cell Press Homogenizer (1500 psi, 3 cycles). […] The resin was poured into a chromatography column, washed with 50 ml buffer A (50 mmol·l^−1 TrisCl (pH 8.0), 800 mmol·l^−1 NaCl, 3 mmol·l^−1β-mercaptoethanol; 10% glycerol; 20 mmol·l^−1 imidazole) and 8-His-SUMO tagged STING proteins were eluted with 15 ml buffer A containing 300 mmol·l^−1 imidazole. […] Proteins were concentrated with Amicon® Ultra-15 10 K device (cat. #UFC901008, Merck Millipore, Billerica, USA) and flash frozen in liquid N2.
(§3) Differential Scanning Fluorimetry with WT STING and AQ STING
(§4) 20 μL solutions of the reaction mixtures were pipetted in triplicates into 96 well optical reaction plates and thermal denaturation of samples were performed on real time PCR cycler (LightCycler® 480 Instrument II—Roche, Base^1, Switzerland). The first derivative of the thermal denaturation curves was performed to calculate denaturing temperatures of STING-CDN complexes and STING apoproteins. The thermal shift for each CDN was calculated by subtracting the average denaturing temperature of STING apoprotein from the average denaturing temperature of STING CDN complex.

[2] = target: human wild type STING (WT STING) (Homo sapiens, UniProt Q86WV6, H232R); experiment: Digitonin assay using 293T wtSTING-FL reporter cells (ISRE firefly luciferase reporter); format: cell-based; settings: 293T wtSTING-FL cells; 30 min in Digitonin buffer, then 5 hours; luciferase read-out; 8-point dose-response curve; read-out: Digitonin assay EC50 (μmol · l^−1) WT STING
Text: Two complementary oligonucleotides of the sequence […] […] […] […] […] The oligonucleotides were mixed in equal molar amounts, hybridized, and cleaved by restriction endonucleases HindIII (cat. #. R0104S, NEB, Ipswich, USA) and BglII (cat. #R0144S, NEB, Ipswich, USA). Ultimately, they were ligated into plasmid pGL4.27 (cat. #E6651, Promega, Madison, USA) linearized with the same enzymes. As result the sequence with four ISRE sites was placed upstream of the minimum promoter of firefly luciferase reporter gene.
After 5 minutes incubation at room temperature (RT), 250 μL of the mixture was added dropwise to the cells in one well.
Transfected cells were seeded onto poly-D-lysine coated six well plates at density 50,000 cells per 1 cm^2 in DMEM medium with high glucose containing 10% heat inactivated FBS, 30 μg/mL blasticidin (cat. #ant-bl-05, InvivoGen, San Diego, USA), 0.06 mg/ml Penicillin G and 0.1 mg/ml Streptomycin Sulfate (both cat. #. L0018, Biowest, Riverside, USA). The medium was replenished every 3-4 days until visible colonies of cells resistant to blasticidin were formed.
Blasticidin resistant cells stably expressing WT STING were further transfected with […] plasmid following the same procedure as described above. […] Homogeneous culture of stably double transfected cells was prepared by limiting dilution of cells in 96 well plates and wells with cells were selected that originated from a single cell.
The medium was removed next day and three fold serial dilutions of compounds in Digitonin buffer containing 50 mmol·l^−1 HEPES (cat. #H3375, Sigma Aldrich, Czech Republic) pH 7.0, 100 mmol·l^−1 KCl, 3 mmol·l^−1 MgCl2, 0.1 mmol·l^−1 DTT (cat. #D0632, Sigma Aldrich, Czech Republic), 85 mmol·l^−1 Sucrose (cat. #S7903, Sigma Aldrich, Czech Republic), 0.2% BSA (cat. #A2153, Sigma Aldrich, Czech Republic), 1 mmol·l^−1 ATP (cat. #A1852, Sigma Aldrich, Czech Republic), 0.1 mmol·l^−1 GTP (cat. #G8877, Sigma Aldrich, Czech Republic), and 10 μg/mL Digitonin A (cat. #D141, Sigma Aldrich, Czech Republic) were added to the cells. The buffer was removed after 30 minutes incubation at 37° C. with 5% CO2, the cells were washed once with 100 μl of cultivation medium, and 100 IA of medium was added to each well. The plates with cells were incubated for 5 hours at 37° C. with 5% CO2, 50 μl of the medium was removed and 30 μl of ONE-Glo™ Luciferase Assay System reagent (cat. #E6120, Promega, Madison, USA) was added to each well. Luminesce was read on Synergy H1 (Biotek, Winooski, USA).

[3] = target: T2, AQ STING (truncated human STING G230A-R293Q allelic form) (Homo sapiens, UniProt Q86WV6, G230A/H232R/R293Q); experiment: Differential Scanning Fluorimetry with AQ STING; format: binding; settings: thermal shift vs apoprotein; 150 μM CDN; 0.1 mg/ml STING protein; SYPRO Orange; read-out: DSF ΔTm (° C.) AQ STING
T2 construct: truncated human WT STING or AQ STING (amino acid residues 140-343); 8xHis (N, cleaved yes); SUMO (N, cleaved yes); made in house; host or cells: E. coli Rosetta-gami B (DE3)
Method: as §1, §2, §3, §4

T1 sequence (Q86WV6 140-343 H232R): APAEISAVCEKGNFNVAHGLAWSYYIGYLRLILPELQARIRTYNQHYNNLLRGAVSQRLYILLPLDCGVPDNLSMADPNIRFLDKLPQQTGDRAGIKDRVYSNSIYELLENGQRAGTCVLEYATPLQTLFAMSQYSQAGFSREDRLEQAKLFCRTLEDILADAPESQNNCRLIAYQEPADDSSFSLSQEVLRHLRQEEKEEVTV
human wild type STING (WT STING), sequence (Q86WV6 whole entry H232R): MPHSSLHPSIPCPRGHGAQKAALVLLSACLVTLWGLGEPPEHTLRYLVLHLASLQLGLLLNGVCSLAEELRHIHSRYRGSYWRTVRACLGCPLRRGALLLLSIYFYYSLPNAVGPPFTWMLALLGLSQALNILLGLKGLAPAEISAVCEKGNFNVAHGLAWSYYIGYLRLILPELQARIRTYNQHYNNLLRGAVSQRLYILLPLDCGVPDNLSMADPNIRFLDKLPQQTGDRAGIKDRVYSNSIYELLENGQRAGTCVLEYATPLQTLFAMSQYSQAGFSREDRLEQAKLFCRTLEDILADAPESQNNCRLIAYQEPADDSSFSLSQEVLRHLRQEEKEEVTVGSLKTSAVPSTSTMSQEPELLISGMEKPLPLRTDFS
T2 sequence (Q86WV6 140-343 G230A/H232R/R293Q): as the sequence (Q86WV6 140-343 H232R) above, with G91A, R154Q counted along it

Row | ΔTm at 150 µM [1] [°C] | pEC50 [2] | ΔTm at 150 µM [3] [°C] | Structure (SMILES)
1 | 14.2 | 8.22 | 21 | Nc1nc2c(ncn2[C@@H]2O[C@@H]3COP(=O)(O)CO[C@H]4[C@@H](O)[C@H](n5cnc6c(N)ncnc65)O[C@@H]4COP(=O)(O)O[C@@H]2C3)c(=O)[nH]1 [Example 21, (1R,6R,8R,9R,10S,16S,18R)-18-(2-amino-6-oxo-6,9-dihydro-1H-purin-9-yl)-8-(6-amino-9H-purin-9-yl)-3,9,13-trihydroxy-2,4,7,11,14,17-hexaoxa-3λ^5,13λ^5-diphosphatricyclo[14.2.1.0^6,^10]nonadecane-3,13-dione]
2 | 9 | 7.82 | 11.1 | Nc1ncnc2c1ncn2[C@@H]1O[C@@H]2COP(=O)(O)O[C@@H]3[C@H](F)[C@@H](COP(=O)(O)CO[C@H]2[C@H]1F)O[C@H]3n1cnc2c(N)ncnc21 [Example 22, (1S,6R,8R,9R,10R,16R,18R,19R)-8,18-bis(6-amino-9H-purin-9-yl)-9,19-difluoro-3,13-dihydroxy-2,4,7,11,14,17-hexaoxa-3λ^5,13λ^5-diphosphatricyclo[14.2.1.0^6,^10]nonadecane-3,13-dione]
3 | 0.2 | 5.23 | 3.4 | Nc1ncnc2c1ncn2[C@@H]1O[C@@H]2COP(=O)(O)CO[C@@H]3[C@H](O)[C@@H](COP(=O)(O)O[C@H]2[C@H]1O)O[C@H]3n1cnc2c(N)ncnc21 [Example 23, (1R,6S,7R,8R,10R,16R,17R,19R)-8,17-bis(6-amino-9H-purin-9-yl)-4,7,13,19-tetrahydroxy-3,5,9,12,15,18-hexaoxa-4λ^5,13λ^5-diphosphatricyclo[14.2.1.0^6,^10]nonadecane-4,13-dione]
4 | 20.4 | 7.70 | 25.7 | Nc1ncnc2c1ncn2[C@@H]1O[C@@H]2COP(=O)(O)O[C@@H]3[C@H](F)[C@@H](COP(=O)(O)CO[C@H]2[C@H]1F)O[C@H]3n1cnc2c(=O)[nH]cnc21 [Example 24]
5 | 10.6 | 7.28 | 17.5 | Nc1nc(N)c2ncn([C@@H]3O[C@@H]4COP(=O)(O)CO[C@H]5[C@@H](O)[C@H](n6cnc7c(N)ncnc76)O[C@@H]5COP(=O)(O)O[C@@H]3[C@@H]4F)c2n1 [Example 25, (1S,6R,8R,9R,10S,16R,18R,19R)-8-(6-amino-9H-purin-9-yl)-18-(2,6-diamino-9H-purin-9-yl)-19-fluoro-3,9,13-trihydroxy-2,4,7,11,14,17-hexaoxa-3λ^5,13λ^5-diphosphatricyclo[14.2.1.0^6,^10]nonadecane-3,13-dione]
6 | 2.1 | 6.24 | 7.5 | Nc1nc(N)c2ncn([C@@H]3O[C@@H]4COP(=O)(O)O[C@@H]5[C@H](O)[C@@H](COP(=O)(O)CO[C@H]4[C@H]3F)O[C@H]5n3cnc4c(N)ncnc43)c2n1 [Example 26, (1R,6R,8R,9R,10R,16R,18R,19R)-18-(6-amino-9H-purin-9-yl)-8-(2,6-diamino-9H-purin-9-yl)-9-fluoro-3,13,19-trihydroxy-2,4,7,11,14,17-hexaoxa-3λ^5,13λ^5-diphosphatricyclo[14.2.1.0^6,^10]nonadecane-3,13-dione]
